Measured values published in US10010614B2, “Derivatives of GLP-1 like peptides, and uses thereof” (Novo Nordisk A/S, priority 2013, dated 2018).
Numbered stars: 1 amine (or outer) side, 2 acyl side, 3 side chain; on linkers, the order of the positions; unused ones are H or OH. Square brackets hold non-standard residues; d marks the D form. Side chains are listed from the residue outwards. Peptide text beside a SMILES is read from it. * marks the point of attachment. C20 diacid = O=C(O)CCCCCCCCCCCCCCCCCCC(=O)*; γGlu = O=C(O)[C@H](CCC(=O)[*:2])N[*:1]; Trx = NC[C@H]1CC[C@H](C(=O)O)CC1; PEG4 = NCCOCCOCCOCCOCCC(=O)O; AEEA = NCCOCCOCC(=O)O; Aib = CC(C)(N)C(=O)O

Experiments:
human GLP-1 receptor [1] = target: T1, human GLP-1 receptor (Homo sapiens, UniProt P43220); test: In vitro potency, CRE luciferase reporter gene assay in BHK cells expressing the human GLP-1 receptor; format: cell-based; conditions: whole cell reporter gene assay, 3 h incubation, no HSA, averages of at least two replicates
T1 construct: expressed in transfected cells; host or cells: membranes prepared from BHK cells (parent line BHKTS13), clone FCW467-12A
Experimental: The purpose of this example is to test the activity, or potency, of the GLP-1 derivatives in vitro. The in vitro potency is the measure of human GLP-1 receptor activation in a whole cell assay.
Semaglutide was included for comparison.
In vitro potency was determined by measuring the response of the human GLP-1 receptor in a reporter gene assay. The assay was performed in a stably transfected BHK cell line that expresses the human GLP-1 receptor and contains the DNA for the cAMP response element (CRE) coupled to a promoter and the gene for firefly luciferase (CRE luciferase). When the human GLP-1 receptor is activated it results in the production of cAMP, which in turn results in the luciferase protein being expressed. When assay incubation is completed the luciferase substrate (luciferin) is added and the enzyme converts luciferin to oxyluciferin to produce bioluminescence. The luminescence is measured as the readout for the assay.
The cells used in this assay (clone FCW467-12A/KZ10-1) were BHK cells with BHKTS13 as a parent cell line. The cells were derived from a clone (FCW467-12A) that expresses the human GLP-1 receptor and were established by further transfection with CRE luciferase to obtain the current clone.
The cells were cultured at 5% CO2 in Cell Culture Medium. They were aliquoted and stored in liquid nitrogen. Before each assay an aliquot is taken up and washed twice in PBS before being suspended at the desired concentration in the assay specific buffer. For 96-well plates the suspension was made to give a final concentration of 5×10^3 cells/well.
The following chemicals were used in the assay: Pluronic F-68 (10%) (Gibco 2404), human serum albumin (HSA) (Sigma A9511), ovalbumin (Sigma A5503), DMEM w/o phenol red (Gibco 11880-028), 1 M Hepes (Gibco 15630), Glutamax 100× (Gibco 35050) and steadylite plus (PerkinElmer 6016757).
Cell Culture Medium consisted of DMEM medium with 10% FBS (Fetal Bovine Serum; Invitrogen 16140-071), 1 mg/ml G418 (Invitrogen 15140-122), 240 nM MTX (methotrexate; Sigma M9929) and 1% pen/strep (penicillin/streptomycin; Invitrogen 15140-122).
Assay Medium consisted of DMEM w/o phenol red, 10 mM Hepes and 1× Glutamax. The Assay Buffer consisted of 2% ovalbumin and 0.2% Pluronic F-68 in Assay Medium.
1) Cell stocks were thawed in a 37° C. water bath.
2) Cells were washed three times in PBS.
3) The cells were counted and adjusted to 5×10^3 cells/50 μl (1×10^5 cells/ml) in Assay Medium. A 50 μl aliquot of cells was transferred to each well in the assay plate.
4) Stocks of the test compounds and reference compounds were diluted to a concentration of 0.2 μM in Assay Buffer. Compounds were diluted 10-fold to give the following concentrations: 2×10^−7 M, […]; 2×10^−9 M, 2×10^−10 M, 2×10^−11 M, 2×10^−12 M, 2×10^−13 M, and 2×10^−14 M. 5) A 50 μl aliquot of compound or blank was transferred from the dilution plate to the assay plate. Compounds were tested at the following final concentrations: 1×10^−7 M, 1×10^−8 M; 1×10^−9 M, 1×10^−10 M, 1×10^−11 M, 1×10^−12 M, 1×10^−13 M, and 1×10^−14 M. 6) The assay plate was incubated for 3 h in a 5% CO2 incubator at 37° C. 7) The assay plate was removed from the incubator and allowed to stand at room temperature for 15 min. 8) A 100 μl aliquot of steadylite plus reagent was added to each well of the assay plate (reagent was light sensitive). 9) Each assay plate was covered with aluminum foil to protect it from light and shaken for 30 min at room temperature. 10) Each assay plate was read in a Packard TopCount NXT instrument. Calculations and Results
The data from the TopCount instrument were transferred to GraphPad Prism software. The software performs a non-linear regression (log(agonist) vs response).
A minimum of two replicates was measured for each sample. The reported values are averages of the replicates.

human GLP-1 receptor [2] = target: T1, human GLP-1 receptor; test: GLP-1 receptor binding, competitive binding assay (125I-GLP-1, SPA) on isolated membranes;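 further: test compounds added at a range of concentrations to membranes from cells expressing the human GLP-1 receptor, scored by displacement of labelled ligand, read with WGA SPA beads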
Experimental: The purpose of this example is to test the receptor binding of the GLP-1 derivatives in vitro. The receptor binding is a measure of affinity of a derivative for the human GLP-1 receptor.
In this type of assay a labelled ligand (in this case ^125I-GLP-1) is bound to the receptor. Each derivative is added in a series of concentrations to isolated membranes containing the human GLP-1 receptor and displacement of the labelled ligand is monitored. The receptor binding is reported as the concentration at which half of the labelled ligand is displaced from the receptor, the IC50 value.
The following chemicals were used in the assay: Human serum albumin (HSA) (Sigma A1653), DMEM w/o phenol red (Gibco 11880-028), Pen/strep (Invitrogen 15140-122), G418 (Invitrogen 10131-027), 1 M Hepes (Gibco 15630), EDTA (Invitrogen 15575-038), PBS (Invitrogen 14190-094), fetal calf serum (Invitrogen 16140-071), EGTA, MgCl2 (Merck 1.05832.1000), Tween 20 (Amresco 0850C335), SPA particles (wheat germ agglutinin (WGA) SPA beads, Perkin Elmer RPNQ0001), [^125I]-GLP-1]-(7-36)NH2 (produced in-house), OptiPlate™-96 (Packard 6005290).
Buffer 1 consisted of 20 mM Na-HEPES plus 10 mM EDTA and pH was adjusted to 7.4. Buffer 2 consisted of 20 mM Na-HEPES plus 0.1 mM EDTA and pH was adjusted to 7.4. Assay buffer consisted of 50 mM HEPES supplemented with 5 mM EGTA, 5 mM MgCl2, 0.005% Tween 20 and pH was adjusted to 7.4. An 8% albumin stock consisted of HSA dissolved at 8% (w/v) in assay buffer. An 0.02% albumin stock consisted of HSA dissolved at 0.02% (w/v) in assay buffer.
The cells express the human GLP-1 receptor.
The cells were grown at 5% CO2 in DMEM, 10% fetal calf serum, 1% Pen/Strep (Penicillin/Streptomycin) and 1.0 mg/ml of the selection marker G418.
To make a membrane preparation the cells were grown to approximately 80% confluence. The cells were washed twice in phosphate-buffered saline and harvested. The cells were pelleted using a brief centrifugation and the cell pellet was kept on ice. The cell pellet was homogenised with ULTRA-THURRAX™ dispersing instrument for 20-30 seconds in a suitable amount of buffer 1 (e.g., 10 ml). The homogenate was centrifuged for 15 minutes. The pellet was re-suspended (homogenised) in 10 ml buffer 2 and centrifuged. This step was repeated once more. The resulting pellet was re-suspended in buffer 2 and the protein concentration was determined. The membranes were aliquoted and stored at minus 80° C.
For the receptor binding assay in the presence of low HSA (0.005%) 50 μl of the assay buffer was added to each well of an assay plate.
For the receptor binding assay in the presence of high HSA (2%) 50 μl of the 8% albumin stock was added to each well of an assay plate.
Cell membrane aliquots were thawed and diluted to their working concentration. Fifty μl were added to each well in the assay plate.
WGA SPA beads were suspended in assay buffer at 20 mg/ml. The suspension was diluted to 10 mg/ml in assay buffer just prior to addition to the assay plate. Fifty μl were added to each well in the assay plate.
The incubation was started by adding 25 μl of 480 pM solution of [^125I]-GLP-1]-(7-36)NH2 to each well of the assay plate. A 25 μl aliquot was reserved for measuring total counts/well.
The assay plate was incubated for 2 h at 30° C.
The assay plate was centrifuged for 10 min.
The assay plate was read in a Packard TopCount NXT instrument.
The data from the TopCount instrument were transferred to GraphPad Prism software. The software averaged the values for the replicates and performed a non-linear regression. IC50 values were calculated by the software and reported in nM.

[3] = High HSA IC50 (nM), high serum albumin (2.0% HSA final assay concentration)
[4] = Low HSA IC50 (nM), low serum albumin (max. 0.001% final assay concentration)

T1 sequence (P43220 24-463): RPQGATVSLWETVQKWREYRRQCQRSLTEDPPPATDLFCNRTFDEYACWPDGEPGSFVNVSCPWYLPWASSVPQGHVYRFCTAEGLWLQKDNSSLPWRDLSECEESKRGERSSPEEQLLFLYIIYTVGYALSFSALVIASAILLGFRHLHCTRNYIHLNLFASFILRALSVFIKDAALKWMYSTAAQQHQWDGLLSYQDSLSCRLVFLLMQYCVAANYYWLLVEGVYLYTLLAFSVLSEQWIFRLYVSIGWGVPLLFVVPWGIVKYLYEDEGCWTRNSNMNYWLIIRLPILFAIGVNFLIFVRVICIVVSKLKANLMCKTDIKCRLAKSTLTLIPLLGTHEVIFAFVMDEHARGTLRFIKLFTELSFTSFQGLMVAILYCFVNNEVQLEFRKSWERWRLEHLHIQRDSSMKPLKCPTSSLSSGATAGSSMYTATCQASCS

CC[C@H](C)[C@H](NC(=O)[C@H](Cc1ccccc1)NC(=O)[C@H](CCC(=O)O)NC(=O)[C@H](CCCNC(=N)N)NC(=O)[C@H](C)NC(=O)[C@H](C)NC(=O)[C@H](CCC(N)=O)NC(=O)[C@H](CCC(=O)O)NC(=O)[C@H](CCC(=O)O)NC(=O)[C@H](CC(C)C)NC(=O)[C@H](Cc1ccc(O)cc1)NC(=O)[C@H](CO)NC(=O)[C@H](CO)NC(=O)[C@@H](NC(=O)[C@H](CC(=O)O)NC(=O)[C@H](CO)NC(=O)[C@@H](NC(=O)[C@H](Cc1ccccc1)NC(=O)[C@@H](NC(=O)CNC(=O)[C@H](CCC(=O)O)NC(=O)C(C)(C)NC(=O)[C@@H](N)Cc1c[nH]cn1)[C@@H](C)O)[C@@H](C)O)C(C)C)C(=O)N[C@@H](C)C(=O)N[C@@H](Cc1c[nH]c2ccccc12)C(=O)N[C@@H](CC(C)C)C(=O)N[C@H](C(=O)N[C@@H](CCCNC(=N)N)C(=O)NCC(=O)N[C@@H](CCCNC(=N)N)C(=O)NCC(=O)N[C@@H](CCCCNC(=O)CCOCCOCCOCCOCCNC(=O)CC[C@H](NC(=O)[C@H]1CC[C@H](CNC(=O)CCCCCCCCCCCCCCCCCCC(=O)O)CC1)C(=O)O)C(=O)NCC(=O)NCC(=O)N[C@@H](CO)C(=O)N[C@@H](CCCCNC(=O)CCOCCOCCOCCOCCNC(=O)CC[C@H](NC(=O)[C@H]1CC[C@H](CNC(=O)CCCCCCCCCCCCCCCCCCC(=O)O)CC1)C(=O)O)C(=O)O)C(C)C [Example 10, N{Alpha}([Aib8,Glu22,Arg26,Arg34]-GLP-1-(7-37)-peptidyl)-N{Epsilon}3-[2-[2-[2-[2-[[(4S)-4-carboxy-4-[[4-[(19-carboxynonadecanoylamino)methyl]cyclohexanecarbonyl]amino]butanoyl]amino]ethoxy]ethoxy]ethoxy]ethoxy]propanoylLys-Gly-Gly-Ser-N{Epsilon}3-[2-[2-[2-[2-[[(4S)-4-carboxy-4-[[4-[(19-carboxynonadecanoylamino)methyl]cyclohexanecarbonyl]amino]butanoyl]amino]ethoxy]ethoxy]ethoxy]ethoxy]propanoylLys] (H-H[Aib]EGTFTSDVSSYLEEQAAREFIAWLVRGRGK([PEG4-γGlu-Trx-C20 diacid])GGSK([PEG4-γGlu-Trx-C20 diacid])-OH)
EC50 (human GLP-1 receptor [1]): 0.027 nM
IC50 (human GLP-1 receptor [2]; [3]): 123 nM
IC50 (human GLP-1 receptor [2]; [4]): 1.3 nM

CC[C@H](C)[C@H](NC(=O)[C@H](Cc1ccccc1)NC(=O)[C@H](CCC(=O)O)NC(=O)[C@H](CCCNC(=N)N)NC(=O)[C@H](C)NC(=O)[C@H](C)NC(=O)[C@H](CCC(N)=O)NC(=O)[C@H](CCC(=O)O)NC(=O)[C@H](CCC(=O)O)NC(=O)[C@H](CC(C)C)NC(=O)[C@H](Cc1ccc(O)cc1)NC(=O)[C@H](CO)NC(=O)[C@H](CO)NC(=O)[C@@H](NC(=O)[C@H](CC(=O)O)NC(=O)[C@H](CO)NC(=O)[C@@H](NC(=O)[C@H](Cc1ccccc1)NC(=O)[C@@H](NC(=O)CNC(=O)[C@H](CCC(=O)O)NC(=O)C(C)(C)NC(=O)[C@@H](N)Cc1c[nH]cn1)[C@@H](C)O)[C@@H](C)O)C(C)C)C(=O)N[C@@H](C)C(=O)N[C@@H](Cc1c[nH]c2ccccc12)C(=O)N[C@@H](CC(C)C)C(=O)N[C@H](C(=O)N[C@@H](CCCNC(=N)N)C(=O)NCC(=O)N[C@@H](CCCNC(=N)N)C(=O)NCC(=O)N[C@@H](CCCCNC(=O)COCCOCCNC(=O)COCCOCCNC(=O)CC[C@H](NC(=O)[C@H]1CC[C@H](CNC(=O)CCCCCCCCCCCCCCCCCCC(=O)O)CC1)C(=O)O)C(=O)N1CCC[C@H]1C(=O)N[C@@H](CCC(=O)O)C(=O)NCC(=O)N[C@@H](CCCCNC(=O)COCCOCCNC(=O)COCCOCCNC(=O)CC[C@H](NC(=O)[C@H]1CC[C@H](CNC(=O)CCCCCCCCCCCCCCCCCCC(=O)O)CC1)C(=O)O)C(=O)O)C(C)C [Example 12] (H-H[Aib]EGTFTSDVSSYLEEQAAREFIAWLVRGRGK([AEEA-AEEA-γGlu-Trx-C20 diacid])PEGK([AEEA-AEEA-γGlu-Trx-C20 diacid])-OH)
EC50 (human GLP-1 receptor [1]): 0.024 nM
IC50 (human GLP-1 receptor [2]; [3]): 212 nM
IC50 (human GLP-1 receptor [2]; [4]): 1.4 nM

CC[C@H](C)[C@H](NC(=O)[C@H](Cc1ccccc1)NC(=O)[C@H](CCC(=O)O)NC(=O)[C@H](CCCNC(=N)N)NC(=O)[C@H](C)NC(=O)[C@H](C)NC(=O)[C@H](CCC(N)=O)NC(=O)[C@H](CCC(=O)O)NC(=O)[C@H](CCC(=O)O)NC(=O)[C@H](CC(C)C)NC(=O)[C@H](Cc1ccc(O)cc1)NC(=O)[C@H](CO)NC(=O)[C@H](CO)NC(=O)[C@@H](NC(=O)[C@H](CC(=O)O)NC(=O)[C@H](CO)NC(=O)[C@@H](NC(=O)[C@H](Cc1ccccc1)NC(=O)[C@@H](NC(=O)CNC(=O)[C@H](CCC(=O)O)NC(=O)C(C)(C)NC(=O)[C@@H](N)Cc1c[nH]cn1)[C@@H](C)O)[C@@H](C)O)C(C)C)C(=O)N[C@@H](C)C(=O)N[C@@H](Cc1c[nH]c2ccccc12)C(=O)N[C@@H](CC(C)C)C(=O)N[C@H](C(=O)N[C@@H](CCCNC(=N)N)C(=O)NCC(=O)N[C@@H](CCCNC(=N)N)C(=O)NCC(=O)N[C@@H](CCCCNC(=O)COCCOCCNC(=O)COCCOCCNC(=O)CC[C@H](NC(=O)[C@H]1CC[C@H](CNC(=O)CCCCCCCCCCCCCCCCCCC(=O)O)CC1)C(=O)O)C(=O)N[C@@H](CO)C(=O)N[C@@H](C)C(=O)N[C@@H](CCC(=O)O)C(=O)N[C@@H](CCCCNC(=O)COCCOCCNC(=O)COCCOCCNC(=O)CC[C@H](NC(=O)[C@H]1CC[C@H](CNC(=O)CCCCCCCCCCCCCCCCCCC(=O)O)CC1)C(=O)O)C(=O)O)C(C)C [Example 13] (H-H[Aib]EGTFTSDVSSYLEEQAAREFIAWLVRGRGK([AEEA-AEEA-γGlu-Trx-C20 diacid])SAEK([AEEA-AEEA-γGlu-Trx-C20 diacid])-OH)
EC50 (human GLP-1 receptor [1]): 0.024 nM
IC50 (human GLP-1 receptor [2]; [3]): 160 nM
IC50 (human GLP-1 receptor [2]; [4]): 1.4 nM

CC[C@H](C)[C@H](NC(=O)[C@H](Cc1ccccc1)NC(=O)[C@H](CCC(=O)O)NC(=O)[C@H](CCCNC(=N)N)NC(=O)[C@H](C)NC(=O)[C@H](C)NC(=O)[C@H](CCC(N)=O)NC(=O)[C@H](CCC(=O)O)NC(=O)[C@H](CCC(=O)O)NC(=O)[C@H](CC(C)C)NC(=O)[C@H](Cc1ccc(O)cc1)NC(=O)[C@H](CO)NC(=O)[C@H](CO)NC(=O)[C@@H](NC(=O)[C@H](CC(=O)O)NC(=O)[C@H](CO)NC(=O)[C@@H](NC(=O)[C@H](Cc1ccccc1)NC(=O)[C@@H](NC(=O)CNC(=O)[C@H](CCC(=O)O)NC(=O)C(C)(C)NC(=O)[C@@H](N)Cc1c[nH]cn1)[C@@H](C)O)[C@@H](C)O)C(C)C)C(=O)N[C@@H](C)C(=O)N[C@@H](Cc1c[nH]c2ccccc12)C(=O)N[C@@H](CC(C)C)C(=O)N[C@H](C(=O)N[C@@H](CCCNC(=N)N)C(=O)NCC(=O)N[C@@H](CCCCNC(=O)COCCOCCNC(=O)COCCOCCNC(=O)CC[C@H](NC(=O)[C@H]1CC[C@H](CNC(=O)CCCCCCCCCCCCCCCCCCC(=O)O)CC1)C(=O)O)C(=O)NCC(=O)N[C@@H](C)C(=O)N[C@@H](CCC(=O)O)C(=O)N[C@@H](CO)C(=O)N1CCC[C@H]1C(=O)N[C@@H](CCCCNC(=O)COCCOCCNC(=O)COCCOCCNC(=O)CC[C@H](NC(=O)[C@H]1CC[C@H](CNC(=O)CCCCCCCCCCCCCCCCCCC(=O)O)CC1)C(=O)O)C(=O)O)C(C)C [Example 14] (H-H[Aib]EGTFTSDVSSYLEEQAAREFIAWLVRGK([AEEA-AEEA-γGlu-Trx-C20 diacid])GAESPK([AEEA-AEEA-γGlu-Trx-C20 diacid])-OH)
EC50 (human GLP-1 receptor [1]): 0.022 nM
IC50 (human GLP-1 receptor [2]; [3]): 530 nM
IC50 (human GLP-1 receptor [2]; [4]): 1.5 nM
